Several values for one entry are separate records, joined by “and”; a condition that tells them apart may be missing. Identical values can stand only once.
Columns and labels:
[1] = 101.3 kPa, Liquid, Vibrating tube method
[2] = xn = mol fraction of the nth substance listed; conditions: 101.3 kPa, Liquid, Vibrating tube method

C1COCCO1 [1,4-dioxane]
[1]
Conditions | mass density [kg/m3]
288.15 K | 1039.12
298.15 K | 1027.84
308.15 K | 1016.57
318.15 K | 1005.29

C1COCCO1 [1,4-dioxane] + CC(C)O
mass density [kg/m3], [2]
Conditions | 288.15 K | 298.15 K | 308.15 K | 318.15 K
x1 = 0.05 | 802.95 | 794.39 | 785.56 | 776.41
x1 = 0.15 | 829.25 | 820.23 | 810.98 | 801.46
x1 = 0.25 | 855.23 | 845.83 | 836.22 | 826.38
x1 = 0.35 | 880.71 | 870.97 | 861.05 | 850.93
x1 = 0.449 | 905.45 | 895.43 | 885.24 | 874.87
x1 = 0.5 | 918.21 | 908.04 | 897.73 | 887.25
x1 = 0.55 | 930.47 | 920.18 | 909.74 | 899.16
x1 = 0.651 | 955.14 | 944.61 | 933.97 | 923.2
x1 = 0.75 | 979.12 | 968.37 | 957.54 | 946.6
x1 = 0.85 | 1003.42 | 992.5 | 981.49 | 970.39
x1 = 0.95 | 1027.3 | 1016.17 | 1004.99 | 993.74
x1 = 1 | 1039.12 | 1027.84 | 1016.57 | 1005.29

C1COCCO1 [1,4-dioxane] + CCCO
mass density, [2]
Conditions | 288.15 K | 298.15 K | 308.15 K | 318.15 K
x1 = 0.05 | 820.78 kg/m3 | 812.62 kg/m3 | 804.33 kg/m3 | 795.88 kg/m3
x1 = 0.15 | 846.12 kg/m3 | 837.54 kg/m3 | 828.82 kg/m3 | 819.95 kg/m3
x1 = 0.249 | 870.65 kg/m3 | 861.62 kg/m3 | 852.49 kg/m3 | 843.22 kg/m3
x1 = 0.35 | 894.72 kg/m3 and 894.75 kg/m3 | 885.38 kg/m3 and 885.41 kg/m3 | 875.91 kg/m3 and 875.94 kg/m3 | 866.3 kg/m3 and 866.33 kg/m3
x1 = 0.45 | 918.23 kg/m3 | 908.54 kg/m3 | 898.73 kg/m3 | 888.78 kg/m3
x1 = 0.496 | 928.74 kg/m3 | 918.89 kg/m3 | 908.94 kg/m3 | 898.85 kg/m3
x1 = 0.55 | 941.07 kg/m3 and 941.11 kg/m3 | 931.06 kg/m3 and 931.09 kg/m3 | 920.95 kg/m3 and 920.97 kg/m3 | 910.71 kg/m3 and 910.73 kg/m3
x1 = 0.65 | 963.51 kg/m3 | 953.2 kg/m3 | 942.79 kg/m3 | 932.28 kg/m3
x1 = 0.75 | 985.54 kg/m3 and 985.58 kg/m3 | 974.94 kg/m3 and 974.98 kg/m3 | 964.26 kg/m3 and 964.29 kg/m3 | 953.5 kg/m3 and 953.51 kg/m3
x1 = 0.849 | 1006.97 kg/m3 | 996.12 kg/m3 | 985.2 kg/m3 | 974.19 kg/m3
x1 = 0.948 | 1028.13 kg/m3 | 1017.05 kg/m3 | 1005.9 kg/m3 | 994.68 kg/m3
x1 = 0.95 | 1028.45 kg/m3 | 1017.36 kg/m3 | 1006.21 kg/m3 | 995 kg/m3
x1 = 1 | 1039.12 kg/m3 | 1027.84 kg/m3 | 1016.57 kg/m3 | 1005.29 kg/m3

C1COCCO1 [1,4-dioxane] + ClCCCl
[2], x1 = 1
Conditions | mass density [kg/m3]
288.15 K | 1039.12
298.15 K | 1027.84
308.15 K | 1016.57
318.15 K | 1005.29

CCCO [propan-1-ol]
[1]
Conditions | mass density [kg/m3]
288.15 K | 807.86
298.15 K | 799.78
308.15 K | 791.71
318.15 K | 783.64

CCCO [propan-1-ol] + C1COCCO1
[2], x2 = 0
Conditions | mass density [kg/m3]
288.15 K | 807.86
298.15 K | 799.78
308.15 K | 791.71
318.15 K | 783.64

CCCO [propan-1-ol] + ClCCCl
[2], x1 = 1
Conditions | mass density [kg/m3]
288.15 K | 807.86
298.15 K | 799.78
308.15 K | 791.71
318.15 K | 783.64

CC(C)O [propan-2-ol]
[1]
Conditions | mass density [kg/m3]
288.15 K | 789.68
298.15 K | 781.08
308.15 K | 772.48
318.15 K | 763.88

CC(C)O [propan-2-ol] + C1COCCO1
[2], x2 = 0
Conditions | mass density [kg/m3]
288.15 K | 789.68
298.15 K | 781.08
308.15 K | 772.48
318.15 K | 763.88

CC(C)O [propan-2-ol] + ClCCCl
[2], x1 = 1
Conditions | mass density [kg/m3]
288.15 K | 789.68
298.15 K | 781.08
308.15 K | 772.48
318.15 K | 763.88

From the NIST ThermoML archive (doi:10.1021/acs.jced.8b00067)
